Here are results for one compound from US6218379A, “Tricyclic carbacephems” (Hoffmann-la Roche Inc., priority 1996, dated 2001).

Experiment [1] has as its system Citrobacter freundii 1982. As to the kind of experiment: Antibacterial activity in vitro (MIC) against Citrobacter freundii 1982. It counts as cell-based. The following applies: read-out: MIC C. freundii 1982. On the procedure:
(§1) The minimum inhibitory concentration in vitro (MIC in μg/ml) of a compound of formula I against Citrobacter freundii 1982 and Staphylococcus aureus 887 is measured and compiled in Table 2.

The subject of experiment [2] is Staphylococcus aureus 887. As to the kind of experiment: Antibacterial activity in vitro (MIC) against Staphylococcus aureus 887. It counts as cell-based. The following applies: read-out: MIC S. aureus 887. On the procedure:
as §1

In brackets after ≈: the same amount, converted by molar mass.

As usually defined, the MIC is the smallest concentration in the dilution series that meets the test's criterion for growth inhibition.

For `CC(=O)N1C[C@H]2CC(/C=C/c3cccc[n+]3CC(N)=O)=C(C(=O)[O-])N3C(=O)[C@@H]1[C@@H]23` [Example 72, (E)-(1aS,3aR,6bR)-2-Acetyl-5-[2-(1-carbamoylmethyl-pyridin-1-ium-2-yl)-vinyl]-1-oxo-1a,2,3,3a,4,6b-hexahydro-1H-2,6a-diaza-cyclobut[cd]indene-6-carboxylate], the MIC in experiment [1] and in experiment [2] was 64 µg/mL (≈ 161 µM) throughout.
